Experimental data taken from patent US9469652B2, “ERK inhibitors” (Eli Lilly and Company, priority 2014, dated 2016).

Tests used:
[1] = tested on: human colorectal cancer cells HCT116; assay: In vivo combination study, HCT116 KRAS mutant colorectal cancer xenograft model; settings: oral, 28 days, single agent
Procedure: (§1) More specifically, the compound of Example 1 is tested in combination with either the pan-RAF inhibitor compound or the CDK4/6 inhibitor compound in HCT116, a KRAS mutant colorectal cancer xenograft model. Also, the compound of Example 1 is tested in combination with either the CDK4/6 inhibitor compound or DC101 in NCI-H441, A549, and NCI-H2122, KRAS mutant non-small cell lung cancer (NSCLC) xenograft models.
The HCT116 combination efficacy study is done in athymic nude rats. Expand human colorectal cancer cells HCT116 (ATCC, #CCL-247) in culture, harvest and inject 5×10e^6 cells in 200 μL of 1:1 HBSS+matrigel solution subcutaneously on to the rear right flank of female NIH nude rats (120-145 gm, Taconic Farms). Measure tumor growth and body weight twice per week beginning the seventh day after the implantation. When average tumor sizes reach 200-300 mm^3, randomize animals and group into groups of five to seven animals. Prepare test compound in an appropriate vehicle (see below) and administer by oral gavage for 21 to 28 days. Tumor response is determined by tumor volume measurement performed twice a week during the course of treatment. Vehicle used in this study is 1% HEC (hydroxy ethyl cellulose)/0.25% Tween® 80/0.05% Antifoam. The compound of Example 1 and the pan-RAF inhibitor compound are formulated in 1% HEC/0.25% Tween® 80/0.05% Antifoam. The CDK4/6 inhibitor compound is formulated in 1% HEC in 25 mM Sodium phosphate buffer, pH 2.

[2] = tested on: human non-small cell lung cancer cells A549 (KRAS_G12S); assay: In vivo combination study, A549 NSCLC xenograft model; set-up: species or system female CB-17 SCID mice; settings: single agent
Procedure: as §1
(§2) Combination efficacy is also tested in three KRAS mutant NSCLC xenograft models including A549 (KRAS_G12S) in SCID mice as well as NCI-H441 (KRAS_G12V) and NCI-H2122 (KRAS_G12C) in athymic nude mice. Expand human non-small cell lung cancer cells NCI-H441 (ATCC, #CRL-5807) and NCI-H2122 (ATCC, #CRL-5985) in culture, harvest and inject 5×10e^6 cells in 200 μL of 1:1 HBSS+matrigel solution subcutaneously on to the rear right flank of female athymic nude mice (20-22 gm, Harlan Laboratories). Expand human non-small cell lung cancer cells A549 (ATCC, #CC1-185) in culture, harvest and inject 5×10e^6 cells in 200 μL of 1:1 HBSS+matrigel solution subcutaneously on to the rear right flank of female CB-17 SCID mice (18-20 gm, Taconic Farms). For all cell lines, measure tumor growth and body weight twice per week beginning the seventh day after the implantation. When average tumor sizes reach 200-300 mm^3, randomize animals and group into groups of five to seven animals. Prepare test compound in an appropriate vehicle (see below) and administer by oral gavage (compound of Example 1 and the CDK4/6 inhibitor compound) or intraperitoneally (DC101) for 21 to 28 days. Tumor response is determined by tumor volume measurement performed twice a week during the course of treatment. Vehicle used in these studies is 1% HEC/0.25% Tween® 80/0.05% Antifoam. The compound of Example 1 is formulated in 1% HEC/0.25% Tween® 80/0.05% Antifoam and the CDK4/6 inhibitor compound is formulated in 1% HEC in 25 mM sodium phosphate buffer, pH 2. […] In the same NCI-H441 xenograft model, DC101 in phosphate buffer is also administered intraperitoneally twice per week (BIW) as a single agent or in combination with the compound of Example 1, 50 mpk, QD for 28 days.

[3] = tested on: human non-small cell lung cancer cells NCI-H2122 (KRAS_G12C); assay: In vivo combination study, NCI-H2122 NSCLC xenograft model; set-up: species or system female athymic nude mice; settings: single agent
Procedure: as §1, §2

[4] = tested on: human non-small cell lung cancer cells NCI-H441 (KRAS_G12V); assay: In vivo combination study, NCI-H441 NSCLC xenograft model; settings: single agent
Procedure: as §1, §2

`CNc1ncc2cc(-c3cc(NC(=O)NCCC(C)(C)C)c(F)cc3C)c(C)nc2n1` [pan-RAF inhibitor, 1-(3,3-dimethylbutyl)-3-(2-fluoro-4-methyl-5-(7-methyl-2-(methylamino)pyrido[2,3-d]pyrimidin-6-yl)phenyl)urea] was tested, and the “Delta T/C %” value ([1]; 10 mg/kg BID) was 71%, the TGI % ([1]; 10 mg/kg BID) was 29% and the “Delta T/C %” value ([1]; 20 mg/kg BID) was 32%. It also gave a TGI % ([1]; 20 mg/kg BID) of 68%.
With `CCN1CCN(Cc2ccc(Nc3ncc(F)c(-c4cc(F)c5nc(C)n(C(C)C)c5c4)n3)nc2)CC1` [CDK4/6 inhibitor, [5-(4-ethyl-piperazin-1-ylmethyl)-pyridin-2-yl]-[5-fluoro-4-(7-fluoro-3-isopropyl-2-methyl-3H-benzoimidazol-5-yl)-pyrimidin-2-yl]-amine, reference compound] the “Delta T/C %” value ([2]; 50 mg/kg QD, oral, 28 days) was 49%, the tumor growth inhibition ([2]; 50 mpk) was 51% and the “Delta T/C %” value ([3]; 50 mg/kg QD, oral, 28 days) was 47%. The tumor growth inhibition ([3]; 50 mpk) was 53%, the “Delta T/C %” value ([4]; 50 mg/kg QD, oral, 28 days) was 19% and the tumor growth inhibition ([4]; 50 mpk) was 81%. For the same compound, the “Delta T/C %” value ([1]; 20 mg/kg QD) was 24% and the TGI % ([1]; 20 mg/kg QD) was 76%.
